Test results published in patent US20200370087A1, “METHOD FOR DETERMINING MICROBIAL SUSCEPTIBILITY TO ANTIBIOTIC AGENTS” (Ascilion AB, priority 2017, published 2020).
Values after ≈ are worked out from the molar mass of the structure shown.

Tests used:
[1] = test system: Staphylococcus aureus (ATCC 29213); experiment: Glucose consumption susceptibility test, blood culture diluted in MHB with glucose (Example 1); type: cell-based; set-up: glucose concentration, t = 0 / glucose concentration, t = 60 / glucose concentration, t = 120 / glucose concentration, t = 180 / glucose concentration, t = 240 / dC/dT (rate of change in glucose concentration): unit not given here; conditions: for F = the rate of change in glucose concentration in relation to the reference / dC/dT (rate of change in glucose concentration) / glucose concentration, t = 0 / glucose concentration, t = 60 / glucose concentration, t = 120 / glucose concentration, t = 180 / glucose concentration, t = 240: S. aureus; for glucose concentration, t = 0: 0 minutes; for glucose concentration, t = 60: 60 minutes; for glucose concentration, t = 120: 120 minutes; for glucose concentration, t = 180: 180 minutes; for glucose concentration, t = 240: 240 minutes
Outline: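 Glucose was measured by glucometer at 0, 60, 120, 180 and 240 min after 1:100 dilution of positive blood culture in cation-adjusted MHB containing 1.0 mg/mL glucose.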

[2] = test system: Escherichia coli ATCC 25922; conditions: E.coli, cited from earlier work
[3] = test system: Staphylococcus aureus ATCC 29213; conditions: S.aureus, cited from earlier work; for MIC, EUCAST, range in parentheses: range obtained by EUCAST from ISO 20776-1: 2006; for MIC, EUCAST: reference value, Mueller-Hinton agar, incubation 18±2 h
[4] = test system: Enterococcus faecalis ATCC 29212; conditions: E.faecalis, cited from earlier work
[5] = range obtained by EUCAST from ISO 20776-1: 2006
[6] = reference value, Mueller-Hinton agar, incubation 18±2 h, N/A = not susceptible

Compound: CO[C@@]1(NC(=O)Cc2cccs2)C(=O)N2C(C(=O)O)=C(COC(N)=O)CS[C@@H]21 [Cefoxitin, cefoxitin]
- F = the rate of change in glucose concentration in relation to the reference ([1]; antibiotic 0.25 μg/mL): 91%
- dC/dT (rate of change in glucose concentration) ([1]; antibiotic 0.25 μg/mL): 31
- glucose concentration, t = 0 ([1]; antibiotic 0.25 μg/mL): 143
- glucose concentration, t = 60 ([1]; antibiotic 0.25 μg/mL): 152
- glucose concentration, t = 120 ([1]; antibiotic 0.25 μg/mL): 132
- glucose concentration, t = 180 ([1]; antibiotic 0.25 μg/mL): 91
- glucose concentration, t = 240 ([1]; antibiotic 0.25 μg/mL): 33
- F = the rate of change in glucose concentration in relation to the reference ([1]; antibiotic 0.5 μg/mL): 96%
- dC/dT (rate of change in glucose concentration) ([1]; antibiotic 0.5 μg/mL): 32
- glucose concentration, t = 0 ([1]; antibiotic 0.5 μg/mL): 144
- glucose concentration, t = 60 ([1]; antibiotic 0.5 μg/mL): 155
- glucose concentration, t = 120 ([1]; antibiotic 0.5 μg/mL): 130
- glucose concentration, t = 180 ([1]; antibiotic 0.5 μg/mL): 91
- glucose concentration, t = 240 ([1]; antibiotic 0.5 μg/mL): 32
- F = the rate of change in glucose concentration in relation to the reference ([1]; antibiotic 1 μg/mL): 82%
- dC/dT (rate of change in glucose concentration) ([1]; antibiotic 1 μg/mL): 28
- glucose concentration, t = 0 ([1]; antibiotic 1 μg/mL): 147
- glucose concentration, t = 60 ([1]; antibiotic 1 μg/mL): 155
- glucose concentration, t = 120 ([1]; antibiotic 1 μg/mL): 133
- glucose concentration, t = 180 ([1]; antibiotic 1 μg/mL): 100
- glucose concentration, t = 240 ([1]; antibiotic 1 μg/mL): 40
- F = the rate of change in glucose concentration in relation to the reference ([1]; antibiotic 2 μg/mL): 72%
- dC/dT (rate of change in glucose concentration) ([1]; antibiotic 2 μg/mL): 24
- glucose concentration, t = 0 ([1]; antibiotic 2 μg/mL): 141
- glucose concentration, t = 60 ([1]; antibiotic 2 μg/mL): 146
- glucose concentration, t = 120 ([1]; antibiotic 2 μg/mL): 143
- glucose concentration, t = 180 ([1]; antibiotic 2 μg/mL): 98
- glucose concentration, t = 240 ([1]; antibiotic 2 μg/mL): 61
- F = the rate of change in glucose concentration in relation to the reference ([1]; antibiotic 4 μg/mL): 16%
- dC/dT (rate of change in glucose concentration) ([1]; antibiotic 4 μg/mL): 6
- glucose concentration, t = 0 ([1]; antibiotic 4 μg/mL): 142
- glucose concentration, t = 60 ([1]; antibiotic 4 μg/mL): 150
- glucose concentration, t = 120 ([1]; antibiotic 4 μg/mL): 143
- glucose concentration, t = 180 ([1]; antibiotic 4 μg/mL): 139
- glucose concentration, t = 240 ([1]; antibiotic 4 μg/mL): 139
- F = the rate of change in glucose concentration in relation to the reference ([1]; antibiotic 8 μg/mL): 24%
- dC/dT (rate of change in glucose concentration) ([1]; antibiotic 8 μg/mL): 8
- glucose concentration, t = 0 ([1]; antibiotic 8 μg/mL): 136
- glucose concentration, t = 60 ([1]; antibiotic 8 μg/mL): 157
- glucose concentration, t = 120 ([1]; antibiotic 8 μg/mL): 160
- glucose concentration, t = 180 ([1]; antibiotic 8 μg/mL): 141
- glucose concentration, t = 240 ([1]; antibiotic 8 μg/mL): 149
- F = the rate of change in glucose concentration in relation to the reference ([1]; antibiotic 16 μg/mL): 22%
- dC/dT (rate of change in glucose concentration) ([1]; antibiotic 16 μg/mL): 8
- glucose concentration, t = 0 ([1]; antibiotic 16 μg/mL): 140
- glucose concentration, t = 60 ([1]; antibiotic 16 μg/mL): 157
- glucose concentration, t = 120 ([1]; antibiotic 16 μg/mL): 152
- glucose concentration, t = 180 ([1]; antibiotic 16 μg/mL): 142
- glucose concentration, t = 240 ([1]; antibiotic 16 μg/mL): 142
- F = the rate of change in glucose concentration in relation to the reference ([1]; antibiotic 32 μg/mL): 27%
- dC/dT (rate of change in glucose concentration) ([1]; antibiotic 32 μg/mL): 9
- glucose concentration, t = 0 ([1]; antibiotic 32 μg/mL): 145
- glucose concentration, t = 60 ([1]; antibiotic 32 μg/mL): 154
- glucose concentration, t = 120 ([1]; antibiotic 32 μg/mL): 145
- glucose concentration, t = 180 ([1]; antibiotic 32 μg/mL): 136
- glucose concentration, t = 240 ([1]; antibiotic 32 μg/mL): 139
- MIC ([1]; Staphylococcus aureus, ATCC29213, S.aureus, 80% threshold of reference rate of change, 60 to 180 minutes, read-out: MIC, Measured): 2 µg/mL (≈ 4.68 µM)
- MIC, EUCAST, range in parentheses [2, 5]: (2-8) ug/mL
- MIC, EUCAST [2, 6]: 4 µg/mL (≈ 9.36 µM)
- MIC, EUCAST, range in parentheses [3]: (1-4) ug/mL
- MIC, EUCAST [3]: 2 µg/mL (≈ 4.68 µM)

Compound: CN[C@H](CC(C)C)C(=O)N[C@H]1C(=O)N[C@@H](CC(N)=O)C(=O)N[C@H]2C(=O)N[C@H]3C(=O)N[C@H](C(=O)N[C@H](C(=O)O)c4cc(O)cc(O)c4-c4cc3ccc4O)[C@H](O)c3ccc(c(Cl)c3)Oc3cc2cc(c3O[C@@H]2O[C@H](CO)[C@@H](O)[C@H](O)[C@H]2O[C@H]2C[C@](C)(N)[C@H](O)[C@H](C)O2)Oc2ccc(cc2Cl)[C@H]1O [Vancomycin, vancomycin]
- F = the rate of change in glucose concentration in relation to the reference ([1]; antibiotic 0.25 μg/mL): 75%
- dC/dT (rate of change in glucose concentration) ([1]; antibiotic 0.25 μg/mL): 25
- glucose concentration, t = 60 ([1]; antibiotic 0.25 μg/mL): 142
- glucose concentration, t = 120 ([1]; antibiotic 0.25 μg/mL): 133
- glucose concentration, t = 180 ([1]; antibiotic 0.25 μg/mL): 92
- glucose concentration, t = 240 ([1]; antibiotic 0.25 μg/mL): 42
- F = the rate of change in glucose concentration in relation to the reference ([1]; antibiotic 0.5 μg/mL): 84%
- dC/dT (rate of change in glucose concentration) ([1]; antibiotic 0.5 μg/mL): 28
- glucose concentration, t = 60 ([1]; antibiotic 0.5 μg/mL): 156
- glucose concentration, t = 120 ([1]; antibiotic 0.5 μg/mL): 142
- glucose concentration, t = 180 ([1]; antibiotic 0.5 μg/mL): 100
- glucose concentration, t = 240 ([1]; antibiotic 0.5 μg/mL): 51
- F = the rate of change in glucose concentration in relation to the reference ([1]; antibiotic 1 μg/mL): 96%
- dC/dT (rate of change in glucose concentration) ([1]; antibiotic 1 μg/mL): 32
- glucose concentration, t = 60 ([1]; antibiotic 1 μg/mL): 161
- glucose concentration, t = 120 ([1]; antibiotic 1 μg/mL): 140
- glucose concentration, t = 180 ([1]; antibiotic 1 μg/mL): 97
- glucose concentration, t = 240 ([1]; antibiotic 1 μg/mL): 51
- F = the rate of change in glucose concentration in relation to the reference ([1]; antibiotic 2 μg/mL): 88%
- dC/dT (rate of change in glucose concentration) ([1]; antibiotic 2 μg/mL): 30
- glucose concentration, t = 60 ([1]; antibiotic 2 μg/mL): 160
- glucose concentration, t = 120 ([1]; antibiotic 2 μg/mL): 143
- glucose concentration, t = 180 ([1]; antibiotic 2 μg/mL): 101
- glucose concentration, t = 240 ([1]; antibiotic 2 μg/mL): 53
- F = the rate of change in glucose concentration in relation to the reference ([1]; antibiotic 4 μg/mL): 39%
- dC/dT (rate of change in glucose concentration) ([1]; antibiotic 4 μg/mL): 13
- glucose concentration, t = 60 ([1]; antibiotic 4 μg/mL): 157
- glucose concentration, t = 120 ([1]; antibiotic 4 μg/mL): 147
- glucose concentration, t = 180 ([1]; antibiotic 4 μg/mL): 131
- glucose concentration, t = 240 ([1]; antibiotic 4 μg/mL): 107
- F = the rate of change in glucose concentration in relation to the reference ([1]; antibiotic 8 μg/mL): 6%
- dC/dT (rate of change in glucose concentration) ([1]; antibiotic 8 μg/mL): 2
- glucose concentration, t = 60 ([1]; antibiotic 8 μg/mL): 150
- glucose concentration, t = 120 ([1]; antibiotic 8 μg/mL): 150
- glucose concentration, t = 180 ([1]; antibiotic 8 μg/mL): 146
- glucose concentration, t = 240 ([1]; antibiotic 8 μg/mL): 149
- F = the rate of change in glucose concentration in relation to the reference ([1]; antibiotic 16 μg/mL): 7%
- dC/dT (rate of change in glucose concentration) ([1]; antibiotic 16 μg/mL): 3
- glucose concentration, t = 60 ([1]; antibiotic 16 μg/mL): 157
- glucose concentration, t = 120 ([1]; antibiotic 16 μg/mL): 153
- glucose concentration, t = 180 ([1]; antibiotic 16 μg/mL): 152
- glucose concentration, t = 240 ([1]; antibiotic 16 μg/mL): 149
- F = the rate of change in glucose concentration in relation to the reference ([1]; antibiotic 32 μg/mL): 13%
- dC/dT (rate of change in glucose concentration) ([1]; antibiotic 32 μg/mL): 5
- glucose concentration, t = 60 ([1]; antibiotic 32 μg/mL): 157
- glucose concentration, t = 120 ([1]; antibiotic 32 μg/mL): 140
- glucose concentration, t = 180 ([1]; antibiotic 32 μg/mL): 148
- glucose concentration, t = 240 ([1]; antibiotic 32 μg/mL): 146
- MIC, EUCAST, range in parentheses [4, 5]: (1-4) ug/mL
- MIC, EUCAST [4, 6]: 2 µg/mL (≈ 1.38 µM)
- MIC, EUCAST, range in parentheses [3]: (0.5-2) ug/mL
- MIC, EUCAST [3]: 1 µg/mL (≈ 0.69 µM)
